The values that follow are results of earlier work, collected in patent US10328004B2, “Sunscreen cosmetic” (SHISEIDO COMPANY, LTD., priority 2015, dated 2019).

Each structure is given as a SMILES string.

The conditions of this series: UVB wavelength range.

Turning to `CCCCC(CC)COC(=O)c1ccc(Nc2nc(Nc3ccc(C(=O)OCC(CC)CCCC)cc3)nc(Nc3ccc(C(=O)OCC(CC)CCCC)cc3)n2)cc1` (stereo not shown) [Ethylhexyl triazone], the maximum absorption wavelength was 312 nm.
